Experimental data taken from ChEMBL document CHEMBL1158450, “A small-molecule inhibitor of Nipah virus envelope protein-mediated membrane fusion” (J Med Chem, 2009).
Active and inactive are the calls of the source. No cut-off for these calls is given here.

Key:
Vero [1] = test: Cytotoxicity against african green monkey Vero cells at 10 to 200 uM after 16 hrs by MTT assay; format: cell-based; conditions: chlorocebus sabaeus
[2] = target: T1, Glycoprotein G (Henipavirus nipahense) (UniProt Q9IH62); format: cell-based; conditions: Vero, 10 to 200 uM
T1 sequence (whole entry): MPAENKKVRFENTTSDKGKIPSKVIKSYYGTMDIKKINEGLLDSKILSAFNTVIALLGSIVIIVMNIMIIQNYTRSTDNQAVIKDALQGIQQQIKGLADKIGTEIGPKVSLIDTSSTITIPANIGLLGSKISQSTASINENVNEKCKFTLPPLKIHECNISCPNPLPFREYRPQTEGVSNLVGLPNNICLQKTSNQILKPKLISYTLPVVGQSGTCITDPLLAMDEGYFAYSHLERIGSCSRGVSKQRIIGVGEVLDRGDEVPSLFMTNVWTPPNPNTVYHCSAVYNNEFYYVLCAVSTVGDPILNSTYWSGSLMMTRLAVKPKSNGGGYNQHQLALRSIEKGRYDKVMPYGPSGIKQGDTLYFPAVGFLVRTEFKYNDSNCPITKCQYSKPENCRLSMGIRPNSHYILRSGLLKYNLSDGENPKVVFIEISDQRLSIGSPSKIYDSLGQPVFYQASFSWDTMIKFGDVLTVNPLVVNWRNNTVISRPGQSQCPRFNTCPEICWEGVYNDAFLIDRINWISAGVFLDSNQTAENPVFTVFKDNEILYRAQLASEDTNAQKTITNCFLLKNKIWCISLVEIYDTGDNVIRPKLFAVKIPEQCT

Vero [3] = format: cell-based; conditions: Measles morbillivirus, 10 to 200 uM
[4] = (§1) Cytotoxicity against african green monkey Vero cells after 16 hrs by MTT assay; format: cell-based, Chlorocebus sabaeus; conditions: chlorocebus sabaeus, Vero cells
Glycoprotein G = target: T2, Glycoprotein G (Henipavirus nipahense, UniProt Q9IH62); format: cell-based; conditions: vero
T2 sequence (Q9IH62 whole entry): T1 sequence (whole entry)

Vero [5] = test: as §1; format: cell-based, Chlorocebus sabaeus; conditions: Chlorocebus sabaeus, Vero, 16 h
[6] = Selectivity index, CC50 for african green monkey Vero cells to EC50 for Measles virus hemagglutininin/F-mediated cell-cell fusion; format: toxicity, cell-based; conditions: read-out: Ratio CC50/EC50
Nipah virus = test: Inhibition of Nipah virus-mediated cell fusion infected in african green monkey Vero cells assessed as reduction in virus-induced syncytium formation after 24 hrs relative to control; format: functional, organism-based; conditions: Henipavirus nipahense

Structure (SMILES)	Activity (Vero [1])	Activity [2]	Activity (Vero [3])	CC50 at 16 h [4]	other results
CCn1cc(C(=O)NCc2ccccn2)c(=O)c2cc(F)ccc21	Not Active	inactive	inactive	–	–
C=CCN1[C@@H](c2ccc([N+](=O)[O-])cc2)C(C(=O)OCC)=C(O)C(C(=O)OCC)[C@@H]1c1ccc([N+](=O)[O-])cc1 (some centres not stated)	–	–	–	> 20 µM	–
CCn1cc(C(=O)NCc2ccccn2)c(=O)c2cc(C(F)(F)F)ccc21	Not Active	inactive	inactive	–	–
CCn1cc(C(=O)NCc2ccc(OC)cc2)c(=O)c2cc(C(F)(F)F)ccc21	Not Active	inactive	inactive	–	–
CCn1cc(C(=O)NCC2CC2)c(=O)c2cc(C(F)(F)F)ccc21	Not Active	inactive	inactive	–	–
CCn1cc(C(=O)NCC2CC2)c(=O)c2cc(F)ccc21	Not Active	inactive	inactive	–	–
CCn1cc(C(=O)NCc2ccc(N)cc2)c(=O)c2cc(F)ccc21	Not Active	inactive	inactive	–	–
CCn1cc(C(=O)NCc2ccc(N)cc2)c(=O)c2cc(C(F)(F)F)ccc21	Not Active	inactive	inactive	–	–
CCn1cc(C(=O)Nc2ccc(F)c(Cl)c2)c(=O)c2ccc(C(F)(F)F)cc21	–	–	–	> 20 µM	EC50 (Glycoprotein G): Not Active
Nc1ccc2oc(Cc3ccccc3)nc2c1	–	–	–	–	EC50 (Vero [5]): 8 µM; selectivity ratio [6]: 20; Activity (Nipah virus): Dose-dependent effect
CCn1cc(C(=O)NCc2ccc(Cl)cc2)c(=O)c2ccc(C(F)(F)F)cc21	–	–	–	> 20 µM	selectivity ratio [6]: > 10
CCOC(=O)C1CCN(c2cc3c(cc2F)c(=O)c(C(=O)O)cn3CC)CC1	Not Active	inactive	inactive	–	–
NC(=O)C1CCN(c2cc3c(cc2F)c(=O)c(C(=O)O)cn3C2CC2)CC1	Not Active	inactive	inactive	–	–
CCn1cc(C(=O)NCc2ccc(OC)cc2)c(=O)c2cc(F)c(Cl)cc21	Not Active	inactive	inactive	–	–
CCOC(=O)C1CCN(c2cc3c(cc2F)c(=O)c(C(=O)NCc2ccc(Cl)cc2Cl)cn3CC)CC1	–	–	–	10 µM	Activity (Nipah virus): Dose-dependent effect
NC(=O)C1CCN(c2cc3c(cc2F)c(=O)c(C(=O)NCc2ccc(Cl)cc2Cl)cn3C2CC2)CC1	–	–	–	> 20 µM	Activity (Nipah virus): Dose-dependent effect
CCn1cc(C(=O)Nc2ccccc2CO)c(=O)c2ccc(C(F)(F)F)cc21	Not Active	inactive	inactive	–	–
CCOC(=O)N1CCN(c2cc3c(cc2F)c(=O)c(C(=O)NCc2ccc(Cl)cc2Cl)cn3CC)CC1	–	–	–	> 20 µM	–
CCOC(=O)N1CCN(c2cc3c(cc2F)c(=O)c(C(=O)NCc2ccc(Cl)cc2Cl)cn3C2CC2)CC1	–	–	–	15 µM	–
